These results are taken from US20240108634A1, “COMPOSITIONS AND METHODS FOR INHIBITING YAP” (The United States Government as represented by the …, priority 2021, published 2024).

The structures appear in SMILES notation.

One experiment deals with T1, YAP-TEAD interaction (Homo sapiens, UniProt P46937).
T1 construct: expressed in transfected cells; host or cells: LN229
Briefly: Co-immunoprecipitation of myc-TEAD with HA-YAP from treated LN229 cells. The class given is cell-based. To be noted: LN229 GBM cells, 24 h. As to the method:
FIGS. 1A-G show the identification of a YAP1-TEAD1 binding interface inhibitor. […] The Gal4 DBD was fused to residues 50-171 of human YAP1 and the Gal4 AD was fused to residues 194-411 of human TEAD1. These fusions were expressed in yeast containing reporters harboring Gal4 upstream activating sequences (UAS). […] Yeast expressing either p53-DBD and SV40 large T antigen-AD fusions or YAP1-DBD and TEAD1-AD fusions were plated on selective media. Compounds were pinned onto the plate surfaces by robotic transfer and subsequently examined for halo formation (indicated by red circles). Compounds inhibiting YAP1-TEAD1 mediated growth on selective media while having no effect on p53-T antigen mediated yeast growth were considered specific. Compounds which blocked the growth of both strains were considered nonspecific and were classified as having general antifungal properties. […] His-tagged YAP (amino acids 50-171 of Accession No. NP_006097) was used in a GST pull-down assay using GST-TEAD (amino acids 194-411 of Accession No. NP_068780) immobilized on glutathione resin. Pull-down products were analyzed by SDS-PAGE and silver staining. […] Cells treated with antimycin A are shown as a negative control. […] Raw binding sensorgrams obtained at each concentration were fitted to a 1:1 binding model and Kon, Koff and KD were calculated by simultaneous non-linear regression analyses.
Protein and mRNA analyses, immunoprecipitation, in vitro bead-coupled inhibitor binding assays and HPLC analyses. […] Antigen-antibody complexes were detected using appropriate horseradish peroxidase-conjugated secondary antibodies (GE Healthcare) and enhanced chemiluminescence (Amersham ECL Prime). […] For quantitative RT-PCR, extraction of RNA was performed using Trizol® (Life Technologies). Total RNA was then quantified and integrity assessed using an Agilent 2100 Bioanalyzer (Agilent Technology). […] SYBR® Green quantitative PCR (Millipore Sigma) was performed in triplicate in 96-well optical plates on an ABI Prism 7000 Sequence Detection System (Life Technologies) according to the manufacturer's instructions. […]

The test system of experiment [1] is GFAP-EGFRvIII×GFAP-Cre+/Rictor glioma GEMM. As to the kind of experiment: Survival of GFAP-EGFRvIII; GFAP-Cre/Rictor transgenic glioma mice. It counts as in vivo. On the procedure: FIGS. 9A-B show GEMM survival and brain/blood plasma concentrations following treatment with NSC682769. […] C57/BL6 mice were administered NSC682769 IV and mean brain and plasma concentrations were determined via HPLC analyses. (n=5).
Animal studies. Xenografts of LN229 cells were performed in 4-6-week-old female C.B.-17-scid (Taconic) mice as previously described (Holmes B, et al. (2016) J Biol Chem 291: 14146-14159). Tumors were harvested at autopsy for immunoblot analysis. Sections of paraffin-embedded tumors on slides were processed for immunohistochemistry as previously described (Benavides-Serrato A, et al. (2017) PLoS One 12: e0176599). For GEMM studies, double transgenic GFAP-EGFRvIII; GFAP-Cre/Rictor^loxP/loxP mice as previously described were used (Bashir T, et al. (2012) PLoS One 7: e47741). Determinations of blood plasma and brain concentrations of NSC682769 following IV administration were performed in C57/BL6 mice.
NSC682769 increases survival of a glioma GEMM and penetrates the blood-brain barrier. NSC682769 was evaluated in double transgenic GFAP-EGFRvIII; GFAP-Cre/Rictor^loxP/loxP mice which overexpress both the mutant constitutively active EGFRvIII allele and the mTORC2 scaffolding component Rictor. […] To assess therapeutic activity, the effect of twice-weekly 5 or 20 mg/kg NSC682769 treatments was measured on survival.

For a further experiment, the target named is T2, full-length human YAP1 (Homo sapiens, UniProt P46937).
T2 construct: purified recombinant HA-tagged full-length human YAP1; made in house
T2 sequence (P46937 whole entry): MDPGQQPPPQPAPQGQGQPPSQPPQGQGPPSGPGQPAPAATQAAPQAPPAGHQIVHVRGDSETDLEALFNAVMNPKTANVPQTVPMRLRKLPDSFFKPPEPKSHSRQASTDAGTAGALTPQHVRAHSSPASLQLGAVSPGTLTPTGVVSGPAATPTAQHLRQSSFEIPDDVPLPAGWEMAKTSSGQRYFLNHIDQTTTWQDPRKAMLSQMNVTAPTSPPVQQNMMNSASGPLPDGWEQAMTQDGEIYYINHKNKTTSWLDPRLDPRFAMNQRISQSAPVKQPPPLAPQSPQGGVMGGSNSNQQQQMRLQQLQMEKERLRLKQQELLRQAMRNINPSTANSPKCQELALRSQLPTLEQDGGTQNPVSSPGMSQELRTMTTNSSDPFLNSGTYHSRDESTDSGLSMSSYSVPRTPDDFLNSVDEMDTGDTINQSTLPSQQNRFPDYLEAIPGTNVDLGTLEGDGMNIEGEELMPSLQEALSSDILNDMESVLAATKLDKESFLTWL
As to the kind of experiment: Inhibitor-coupled bead binding of recombinant HA-tagged YAP. As to conditions: immunoblot of bound HA-YAP. On the procedure: FIGS. 1A-G show the identification of a YAP1-TEAD1 binding interface inhibitor. […] The Gal4 DBD was fused to residues 50-171 of human YAP1 and the Gal4 AD was fused to residues 194-411 of human TEAD1. These fusions were expressed in yeast containing reporters harboring Gal4 upstream activating sequences (UAS). […] Yeast expressing either p53-DBD and SV40 large T antigen-AD fusions or YAP1-DBD and TEAD1-AD fusions were plated on selective media. Compounds were pinned onto the plate surfaces by robotic transfer and subsequently examined for halo formation (indicated by red circles). […] Pull-down products were analyzed by SDS-PAGE and silver staining. […] Raw binding sensorgrams obtained at each concentration were fitted to a 1:1 binding model and Kon, Koff and KD were calculated by simultaneous non-linear regression analyses.
Protein and mRNA analyses, immunoprecipitation, in vitro bead-coupled inhibitor binding assays and HPLC analyses. […] Antigen-antibody complexes were detected using appropriate horseradish peroxidase-conjugated secondary antibodies (GE Healthcare) and enhanced chemiluminescence (Amersham ECL Prime). […] For quantitative RT-PCR, extraction of RNA was performed using Trizol® (Life Technologies). Total RNA was then quantified and integrity assessed using an Agilent 2100 Bioanalyzer (Agilent Technology). […]
On the technique in general: A western blot detects proteins with antibodies after separation by electrophoresis.

T1 sequence (P46937 whole entry): as above

`COc1ccc(-c2cc(-c3ccccc3)nc3c2CC(=O)Nc2ccccc2-3)cc1OC` [NSC682769]: on YAP-TEAD interaction, the “Association of YAP1 with TEAD1 in YAP1 immunoprecipitates” value was “blocked the association of YAP1 with TEAD1”. Moreover, the “Mice surviving to 20 weeks” value in experiment [1] (5 mg/kg twice weekly) was 60%. In experiment [1] (20 mg/kg twice weekly), the “Mice surviving at 20 weeks” value is listed as “more than 75%”. Moreover, the “Binding of YAP to compound-coupled beads” value on full-length human YAP1 is reported as “associated strongly”.
